What was measured:
Format in all cases: physicochemical
[1] = Test Example 2: fluorescence intensity as a function of concentration in PBS (plate reader), same absorption intensity; parameters: increment of fluorescence intensity compared to Compound 19: dose or concentration left out as unconfirmed
Protocol: To determine a change in optical properties when the compound of [Chemical Formula 1] disclosed herein is modified to allow labeling of a biomolecule, an N-succinimidyl group is introduced to each of Compound 9.7 and Compound 10 to obtain Compound 19 and Compound 20, respectively, in the same manner as described hereinabove. Then, fluorescence characteristics are compared at the same absorption wavelength intensity.
Each of Compound 19 and Compound 20 is added to 5 mL of PBS at a concentration of 10 mg/mL at room temperature to provide samples. Next, 1 mL of PBS is added to 2 mL of each sample and the intensity is measured as a function of absorption wavelength. After adjusting the concentration of a sample so that the absorption intensity (Abs at 650 nm) of Compound 19 may be the same as that of Compound 20 from the resultant data, the sample is diluted many times and the fluorescence thereof is determined by using a plate reader (Perkin Elmer).

[2] = Test Example 1: absorption and fluorescence intensity with and without the alkylcarboxyaminocyanuric chloride substituent
Protocol: According to [Chemical Formula 1] disclosed herein, compounds to which a substituent including cyanuric chloride bound with an aminoalkylcarboxylic acid is introduced are prepared and optical properties thereof are compared with each other. Glycine is used as an aminoalkylcarboxylic acid to obtain Compound 1 (Example 1.7) disclosed herein, and the optical properties thereof are compared with those of the compound (Example 1.3) including no alkylcarboxyamino cyanuric chloride substituent introduced thereto.
At the same concentration, the compounds of Example 1.7 and Example 1.3 are determined for absorption wavelength and intensity and the results are shown in FIG. 1A. […] To perform accurate comparison of fluorescence wavelength intensity, the concentration of each of the compounds of Example 1.7 and Example 1.3 is corrected so that they may have the same absorption intensity, and then the fluorescence wavelength and intensity of each compound are determined.

[3] = Test Example 4 (3),(4): relative quantum yield based on Rhodamine 6G; conditions: pH 7.4 1xPBS
Protocol: (§1) Based on Rhodamine 6G (TCI), relative quantum yield of Compound 20 and that of the reference fluorescent dye (Alexa Fluor 647 NHS ester) are determined. DMF is added to the two types of fluorescent dyes and Rhodamine 6G to 10 mg/mL to provide stock solutions. Next, pH 7.4 1×PBS is used to dilute the solutions to a concentration of 10 μM and absorption and fluorescence are determined. Herein, 1/2 dilution is carried out from a concentration of 10 μM and then absorption and fluorescence are determined 10 times totally up to the sample of 1/512× concentration. The determined values are introduced to the following Mathematical Formula 1 to analyze the relative quantum yield and the results are shown in the following Table 3 and FIG. 6.
[formula] • Q=Quantum Yield • I=Fluorophore • OD=Absorbance • SubscriptR=Rodamine 6G
as §1, with “18” for “20”, “555” for “647”, “to” for “to the following”, “yield. The” for “yield and the results are shown in the”, “4” for “3”, “7 show the relative quantum yield of each dye.” for “6.”

[4] = Test Example 4 (1),(2): fluorescence intensity of free dye versus reference fluorescent dye
Protocol: (§2) Compound 20 and a reference fluorescent dye (Alexa Fluor 647 NHS ester) are compared with each other in terms of fluorescence intensity. DMF is added to the two types of fluorescent dyes to provide stock solutions and each solution is adjusted to the same concentration of 10 mg/mL. Next, pH 7.4 10 mM phosphate buffered saline (hereinafter, 1×PBS) is used to dilute the solution to a concentration of 19.5 nM and fluorescence is determined under the setting of Excitation 560 nm. The fluorescence determination is carried out by using LS 55 Fluorescence spectrometer (Perkin Elmer).
as §2, with “18” for “20”, “555” for “647”, “552” for “560”

CC1(CCCCCC(=O)ON2C(=O)CCC2=O)C(/C=C/C=C/C=C2/N(CCCS(=O)(=O)O)c3ccc(S(=O)(=O)O)cc3C2(C)C)=[N+](CCCS(=O)(=O)[O-])c2ccc(S(=O)(=O)O)cc21 (stereo not drawn) [Compound 19]
Average fluorescence intensity (at 665 nm) ([1]; 3 nM in PBS): 412.0 | Average fluorescence intensity (at 665 nm) ([1]; 6 nM in PBS): 810.7 | Average fluorescence intensity (at 665 nm) ([1]; 12 nM in PBS): 1673.0 | Average fluorescence intensity (at 665 nm) ([1]; 25 nM in PBS): 3336.7 | Average fluorescence intensity (at 665 nm) ([1]; 49 nM in PBS): 6483.7 | Average fluorescence intensity (at 665 nm) ([1]; 98 nM in PBS): 12523.0 | Average fluorescence intensity (at 665 nm) ([1]; 196 nM in PBS): 24679.7 | Average fluorescence intensity (at 665 nm) ([1]; 393 nM in PBS): 48611.7 | Average fluorescence intensity (at 665 nm) ([1]; 785 nM in PBS): 91308.7 | Average fluorescence intensity (at 665 nm) ([1]; 1570 nM in PBS): 160778.3 | Average fluorescence intensity (at 665 nm) ([1]; 3140 nM in PBS): 240494.7 | Average fluorescence intensity (at 665 nm) ([1]; 6280 nM in PBS): 308345.7

CC[N+]1=C(/C=C/C=C2/N(CCCCCC(=O)O)c3ccc(S(=O)(=O)O)cc3C2(C)C)C(C)(C)c2cc(S(=O)(=O)[O-])ccc21 [Example 1.3]
absorption wavelength intensity ([2]; same concentration, Example 1.7 versus Example 1.3, FIG. 1A): slightly higher

Alexa Fluor 647 NHS ester [reference compound]
Relative quantum yield (%) ([3]; 650 compound): 7.79%

CC1(CCCCCC(=O)NCCCNc2nc(Cl)nc(NCCCCCC(=O)ON3C(=O)CCC3=O)n2)C(/C=C/C=C/C=C2/N(CCCS(=O)(=O)O)c3ccc(S(=O)(=O)O)cc3C2(C)C)=[N+](CCCS(=O)(=O)[O-])c2ccc(S(=O)(=O)O)cc21 (stereo not drawn) [Compound 20]
fluorescence intensity versus reference fluorescent dye (Alexa Fluor 647 NHS ester) ([4]; 19.5 nM in 1xPBS pH 7.4, Excitation 560 nm, FIG. 4): relatively higher fluorescence intensity | Average fluorescence intensity (at 665 nm) ([1]; 3 nM in PBS): 313.3 | Average fluorescence intensity (at 665 nm) ([1]; 6 nM in PBS): 721.3 | Average fluorescence intensity (at 665 nm) ([1]; 12 nM in PBS): 1454.7 | Average fluorescence intensity (at 665 nm) ([1]; 25 nM in PBS): 2994.3 | Average fluorescence intensity (at 665 nm) ([1]; 49 nM in PBS): 6693.3 | Average fluorescence intensity (at 665 nm) ([1]; 98 nM in PBS): 13859.7 | Average fluorescence intensity (at 665 nm) ([1]; 196 nM in PBS): 29396.3 | Average fluorescence intensity (at 665 nm) ([1]; 393 nM in PBS): 59756.7 | Average fluorescence intensity (at 665 nm) ([1]; 785 nM in PBS): 118049.0 | Average fluorescence intensity (at 665 nm) ([1]; 1570 nM in PBS): 209850.3 | Average fluorescence intensity (at 665 nm) ([1]; 3140 nM in PBS): 321865.0 | Average fluorescence intensity (at 665 nm) ([1]; 6280 nM in PBS): 418428.3 | increment of fluorescence intensity compared to Compound 19 ([1]; FIG. 2): about 40% | Relative quantum yield (%) ([3]; 650 compound): 11.70%

Alexa Fluor 555 NHS ester [reference compound]
Relative quantum yield (%) ([3]; 552 compound): 5.64%

CC[N+]1=C(/C=C/C=C2/N(CCCCCC(=O)NNc3nc(Cl)nc(NCC(=O)O)n3)c3ccc(S(=O)(=O)O)cc3C2(C)C)C(C)(C)c2cc(S(=O)(=O)[O-])ccc21 [Compound 1]
intensity of fluorescence wavelength relative to Example 1.3 ([2]; concentration corrected to same absorption intensity, FIG. 1B): approximately two times higher

CC1(CCCCCC(=O)NCCCNc2nc(Cl)nc(NCCCCCC(=O)ON3C(=O)CCC3=O)n2)C(/C=C/C=C2/N(CCCS(=O)(=O)O)c3ccc(S(=O)(=O)O)cc3C2(C)C)=[N+](CCCS(=O)(=O)O)c2ccc(S(=O)(=O)[O-])cc21 (stereo not drawn) [Compound 18]
fluorescence intensity versus reference fluorescent dye (Alexa Fluor 555 NHS ester) ([4]; 19.5 nM in 1xPBS pH 7.4, Excitation 552 nm, FIG. 5): relatively higher fluorescence intensity | Relative quantum yield (%) ([3]; 552 compound): 13.34%

From patent US10294204B2, “Fluorescence compounds and preparation method thereof” (BioActs Co., Ltd., priority 2016, dated 2019)
